# Laboratory results taken from ChEMBL document CHEMBL5380810, “Scaffold Hybrid of the Natural Product Tanshinone I with Piperidine for the Discovery of a Potent NLRP3 Inflammasome Inhibitor” (J Med Chem, 2023).
# Active and inactive are the calls of the source. The calls are words filed in the database; no cut-off is given here.
# Key:
# Peritoneal macrophage [1] = experiment: Effect on pro-IL-1beta expression in LPS-stimulated mouse peritoneal macrophage at 2 uM treated for 3 hrs followed by ATP addition measured after 30 mins by Western blot analysis; format: functional, cell-based; settings: time 3.5 hrs
# Peritoneal macrophage [2] = experiment: Effect on pro-caspase-1 expression in LPS-stimulated mouse peritoneal macrophage at 2 uM treated for 3 hrs followed by ATP addition measured after 30 mins by Western blot analysis; format: functional, cell-based; settings: time 3.5 hrs
# Mus musculus [3] = experiment: Antiinflammatory activity in septic C57BL/6 mouse model assessed as decrease in LPS-induced IL-6 release at 50 mg/kg, ip pretreated for 42 hrs followed by LPS injection measured after 6 hrs by ELISA method; format: functional, organism-based; settings: time 48.0 hrs
# [4] = target: NACHT, LRR and PYD domains-containing protein 3 (Mus musculus) (UniProt Q8R4B8); experiment: Inhibition of NLRP3 inflammasome activation in […] LPS-primed mouse peritoneal macrophage cells assessed as inhibition of IL-1beta secretion at 2 uM treated for 3 hrs followed by MSU addition measured after 30 mins by ELISA method; format: cell-based; settings: time 3.5 hrs
# NACHT, LRR and PYD domains-containing protein 3 (Mus musculus), sequence (Q8R4B8 whole entry, the tested form may be a part): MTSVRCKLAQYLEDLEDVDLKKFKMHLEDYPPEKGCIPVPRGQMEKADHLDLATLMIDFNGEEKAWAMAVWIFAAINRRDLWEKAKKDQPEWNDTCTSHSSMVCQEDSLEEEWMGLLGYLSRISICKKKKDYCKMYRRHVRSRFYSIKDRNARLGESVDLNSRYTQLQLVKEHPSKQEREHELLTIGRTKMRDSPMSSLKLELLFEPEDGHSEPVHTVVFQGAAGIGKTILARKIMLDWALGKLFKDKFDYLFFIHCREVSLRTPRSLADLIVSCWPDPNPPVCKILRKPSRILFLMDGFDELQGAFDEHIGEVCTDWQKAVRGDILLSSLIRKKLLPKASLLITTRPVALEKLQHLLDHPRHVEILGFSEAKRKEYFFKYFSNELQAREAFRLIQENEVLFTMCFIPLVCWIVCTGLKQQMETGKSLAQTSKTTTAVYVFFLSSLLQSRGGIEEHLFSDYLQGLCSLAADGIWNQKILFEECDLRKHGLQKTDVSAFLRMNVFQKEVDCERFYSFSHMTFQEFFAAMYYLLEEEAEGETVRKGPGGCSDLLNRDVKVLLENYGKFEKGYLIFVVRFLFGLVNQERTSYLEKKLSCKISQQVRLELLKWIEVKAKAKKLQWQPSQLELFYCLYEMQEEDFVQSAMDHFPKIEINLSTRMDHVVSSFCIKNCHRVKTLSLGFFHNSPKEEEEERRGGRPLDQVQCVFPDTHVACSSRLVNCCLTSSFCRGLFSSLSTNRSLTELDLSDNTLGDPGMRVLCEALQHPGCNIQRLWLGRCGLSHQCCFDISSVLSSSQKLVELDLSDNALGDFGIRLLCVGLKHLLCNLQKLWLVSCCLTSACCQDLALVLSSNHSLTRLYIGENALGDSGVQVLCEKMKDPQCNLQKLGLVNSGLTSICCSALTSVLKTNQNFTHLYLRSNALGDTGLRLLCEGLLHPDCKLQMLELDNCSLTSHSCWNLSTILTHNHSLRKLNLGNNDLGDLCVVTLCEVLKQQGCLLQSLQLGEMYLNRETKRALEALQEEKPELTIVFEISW
# Mus musculus [5] = experiment: Antiinflammatory activity in septic C57BL/6 mouse model assessed as decrease in LPS-induced IL-1beta release at 50 mg/kg, ip pretreated for 42 hrs followed by LPS injection measured after 6 hrs by ELISA method; format: functional, organism-based; settings: time 48.0 hrs
# Mus musculus [6] = experiment: Antiinflammatory activity in septic C57BL/6 mouse model assessed as reduction in LPS-induced inflammatory infiltration at 50 mg/kg, ip pretreated for 42 hrs followed by LPS injection measured after 6 hrs by H and E staining based analysis; format: functional, organism-based; settings: time 48.0 hrs
# Peritoneal macrophage [7] = experiment: Antiinflammatory activity against LPS-stimulated mouse peritoneal macrophage assessed as inhibition of IL-1beta secretion at 1 uM treated for 3 hrs followed by ATP addition measured after 30 mins by ELISA method; format: functional, cell-based; settings: time 3.5 hrs
# Mus musculus [8] = experiment: Antiinflammatory activity in septic C57BL/6 mouse model assessed as reduction in LPS-induced alveolar wall thickening at 50 mg/kg, ip pretreated for 42 hrs followed by LPS injection measured after 6 hrs by H and E staining based analysis; format: functional, organism-based; settings: time 48.0 hrs
# Peritoneal macrophage [9] = experiment: Effect on pro-IL-1beta expression in ATP-induced LPS-primed mouse peritoneal macrophage cells at 2 uM treated for 3 hrs followed by ATP addition measured after 30 mins by Western blot analysis; format: functional, cell-based; settings: time 3.5 hrs
# Peritoneal macrophage [10] = experiment: Effect on NLRP3 expression in ATP-induced LPS-primed mouse peritoneal macrophage cells at 2 uM treated for 3 hrs followed by ATP addition measured after 30 mins by Western blot analysis; format: functional, cell-based; settings: time 3.5 hrs
# [11] = target: NACHT, LRR and PYD domains-containing protein 3 (Mus musculus) (UniProt Q8R4B8); experiment: Inhibition of NLRP3 inflammasome activation in LPS-stimulated mouse peritoneal macrophage assessed as inhibition of caspase-1 secretion at 2 uM treated for 3 hrs followed by ATP addition measured after 30 mins by Western blot analysis relative to control; format: cell-based; settings: time 3.5 hrs
# Mus musculus [12] = experiment: Antiinflammatory activity in septic C57BL/6 mouse model assessed as reduction in LPS-induced granulocyte count at 50 mg/kg, ip pretreated for 42 hrs followed by LPS injection measured after 6 hrs by H and E staining based analysis; format: functional, organism-based; settings: time 48.0 hrs
# [13] = target: NACHT, LRR and PYD domains-containing protein 3 (Mus musculus) (UniProt Q8R4B8); experiment: Inhibition of NLRP3 inflammasome activation in LPS-stimulated mouse peritoneal macrophage assessed as inhibition of IL-1beta secretion at 2 uM treated for 3 hrs followed by ATP addition measured after 30 mins by Western blot analysis relative to control; format: cell-based; settings: time 3.5 hrs
# [14] = target: NACHT, LRR and PYD domains-containing protein 3 (Mus musculus) (UniProt Q8R4B8); experiment: Inhibition of NLRP3 inflammasome activation in ATP-induced LPS-primed mouse BMDM cells assessed as inhibition of IL-1beta secretion at 1 uM treated for 3 hrs followed by ATP addition measured after 30 mins by ELISA method; format: cell-based; settings: time 3.5 hrs
# Peritoneal macrophage [15] = experiment: Effect on pro-caspase-1 expression in ATP-induced LPS-primed mouse peritoneal macrophage cells at 2 uM treated for 3 hrs followed by ATP addition measured after 30 mins by Western blot analysis; format: functional, cell-based; settings: time 3.5 hrs
# Peritoneal macrophage [16] = experiment: Effect on ASC expression in ATP-induced LPS-primed mouse peritoneal macrophage cells at 2 uM treated for 3 hrs followed by ATP addition measured after 30 mins by Western blot analysis; format: functional, cell-based; settings: time 3.5 hrs
# Peritoneal macrophage [17] = experiment: Antiinflammatory activity against LPS-stimulated mouse peritoneal macrophage assessed as IL-6 level at 2 uM treated for 3 hrs followed by ATP addition measured after 30 mins by ELISA method; format: functional, cell-based; settings: time 3.5 hrs
# [18] = target: NACHT, LRR and PYD domains-containing protein 3 (Mus musculus) (UniProt Q8R4B8); experiment: Inhibition of NLRP3 inflammasome activation in […] LPS-primed mouse peritoneal macrophage cells assessed as inhibition of IL-1beta secretion at 2 uM treated for 3 hrs followed by nigericin addition measured after 30 mins by ELISA method; format: cell-based; settings: time 3.5 hrs
# Peritoneal macrophage [19] = experiment: Antiinflammatory activity against LPS-stimulated mouse peritoneal macrophage assessed as inhibition of IL-1beta secretion treated for 3 hrs followed by ATP addition measured after 30 mins by ELISA method; format: functional, cell-based
# Peritoneal macrophage [20] = experiment: Antiinflammatory activity against LPS-stimulated mouse peritoneal macrophage assessed as TNF-alpha level at 2 uM treated for 3 hrs followed by ATP addition measured after 30 mins by ELISA method relative to control; format: functional; settings: time 3.5 hrs
# [21] = Metabolic stability in mouse liver microsomes assessed as half life at 20 uM measured upto 120 mins in presence of NADPH by LC-MS/MS analysis; format: ADME, Microsome
# [22] = Aqueous solubility of compound incubated for 24 hrs by HPLC analysis; format: physicochemical; settings: buffer
# [23] = Metabolic stability in human liver microsomes assessed as intrinsic clearance at 20 uM measured upto 120 mins in presence of NADPH by LC-MS/MS analysis; format: ADME, Microsome; settings: read-out: CLH
# Peritoneal macrophage [24] = experiment: Cytotoxicity against mouse peritoneal macrophages at 4 uM incubated for 3.5 hrs by MTT assay; format: toxicity, cell-based
# [25] = Metabolic stability in human liver microsomes assessed as half life at 20 uM measured upto 120 mins in presence of NADPH by LC-MS/MS analysis; format: ADME, Microsome
# [26] = Metabolic stability in mouse liver microsomes assessed as intrinsic clearance at 20 uM measured upto 120 mins in presence of NADPH by LC-MS/MS analysis; format: ADME, Microsome; settings: read-out: CLH
# Peritoneal macrophage [27] = experiment: Antiinflammatory activity against LPS-stimulated mouse peritoneal macrophage assessed as IL-1beta level at 2 uM treated for 3 hrs followed by ATP addition measured after 30 mins by ELISA method relative to control; format: functional; settings: time 3.5 hrs
# [28] = target: NACHT, LRR and PYD domains-containing protein 3 (Mus musculus, UniProt Q8R4B8); experiment: Binding affinity to CMS sensor chip immobilized His-SUMO-tagged mouse NLRP3 expressed in Escherichia coli assessed as dissociation constant by SPR analysis
# NACHT, LRR and PYD domains-containing protein 3, sequence (Q8R4B8 whole entry, the tested form may be a part): as above
# [29] = target: NACHT, LRR and PYD domains-containing protein 3 (Homo sapiens) (UniProt Q96P20); experiment: Inhibition of NLRP3 (unknown origin) degradation at 10 uM incubated for 5 hrs followed by heat treatment for 3 mins by CETSA assay; settings: time 5.03 hrs
# NACHT, LRR and PYD domains-containing protein 3 (Homo sapiens), sequence (Q96P20 whole entry, the tested form may be a part): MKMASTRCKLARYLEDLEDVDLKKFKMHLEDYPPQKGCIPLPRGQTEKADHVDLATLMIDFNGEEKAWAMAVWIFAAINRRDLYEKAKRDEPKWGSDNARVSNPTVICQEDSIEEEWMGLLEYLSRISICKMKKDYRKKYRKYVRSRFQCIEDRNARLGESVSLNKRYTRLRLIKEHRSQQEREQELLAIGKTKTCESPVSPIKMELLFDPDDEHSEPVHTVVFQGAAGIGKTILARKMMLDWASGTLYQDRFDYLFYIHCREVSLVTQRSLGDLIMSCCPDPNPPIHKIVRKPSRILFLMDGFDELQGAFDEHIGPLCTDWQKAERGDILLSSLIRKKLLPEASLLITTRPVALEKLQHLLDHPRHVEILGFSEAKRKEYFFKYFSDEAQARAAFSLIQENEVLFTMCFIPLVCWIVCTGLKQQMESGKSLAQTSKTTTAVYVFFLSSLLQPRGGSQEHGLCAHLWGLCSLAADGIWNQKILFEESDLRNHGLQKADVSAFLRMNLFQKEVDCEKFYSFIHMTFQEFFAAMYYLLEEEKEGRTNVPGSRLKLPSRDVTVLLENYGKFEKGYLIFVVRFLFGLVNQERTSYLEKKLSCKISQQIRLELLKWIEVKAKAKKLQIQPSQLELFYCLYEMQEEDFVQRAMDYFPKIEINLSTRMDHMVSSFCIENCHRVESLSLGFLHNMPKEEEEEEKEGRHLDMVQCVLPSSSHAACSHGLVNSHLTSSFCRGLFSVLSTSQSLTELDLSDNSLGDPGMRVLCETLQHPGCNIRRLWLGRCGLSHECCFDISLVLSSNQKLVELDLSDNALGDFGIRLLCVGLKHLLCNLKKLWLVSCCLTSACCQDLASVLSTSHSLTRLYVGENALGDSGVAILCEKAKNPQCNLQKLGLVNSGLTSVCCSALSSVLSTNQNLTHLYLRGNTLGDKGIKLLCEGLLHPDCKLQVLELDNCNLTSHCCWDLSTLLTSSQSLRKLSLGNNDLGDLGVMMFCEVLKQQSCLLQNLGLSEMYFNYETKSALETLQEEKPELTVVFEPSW
# Peritoneal macrophage [30] = experiment: Antiinflammatory activity against LPS-stimulated mouse peritoneal macrophage assessed as IL-1beta level at 2 uM treated for 3 hrs followed by ATP addition measured after 30 mins by ELISA method; format: functional, cell-based; settings: time 3.5 hrs
# Peritoneal macrophage [31] = experiment: Antiinflammatory activity against LPS-stimulated mouse peritoneal macrophage assessed as IL-6 level at 2 uM treated for 3 hrs followed by ATP addition measured after 30 mins by ELISA method relative to control; format: functional; settings: time 3.5 hrs
inhibition [4],inhibition [11] [%],inhibition [13] [%],inhibition [14],inhibition [18],SMILES,Activity (Peritoneal macrophage [1]),Activity (Peritoneal macrophage [2]),Activity (Mus musculus [3]),Activity (Mus musculus [5]),Activity (Mus musculus [6]),inhibition (Peritoneal macrophage [7]),Activity (Mus musculus [8]),Activity (Peritoneal macrophage [9]),Activity (Peritoneal macrophage [10]),Activity (Mus musculus [12]),Activity (Peritoneal macrophage [15]),Activity (Peritoneal macrophage [16]),Activity (Peritoneal macrophage [20]) [%],Activity (Peritoneal macrophage [24]),further results
Active,100,100,Active,Active,Cc1cccc2c3c(ccc12)-c1oc2c(c1C(=O)C3=O)CCN(CCO)C2,inactive,inactive,Active,Active,Active,Active,Active,inactive,inactive,Active,inactive,inactive,,,Activity (Peritoneal macrophage [17]): inactive
Active,100,100,Active,Active,Cc1cccc2c3c(ccc12)-c1oc2c(c1C(=O)C3=O)CCN(CCCN1CCOCC1)C2 [listing 2 of 2 here],inactive,inactive,Active,Active,Active,Active,Active,inactive,inactive,Active,inactive,inactive,,,inhibition [29]: Active

# Second part, the molecule before the results:
SMILES,inhibition [4],inhibition [11] [%],inhibition [13] [%],inhibition [14],inhibition [18],Activity (Peritoneal macrophage [1]),Activity (Peritoneal macrophage [2]),Activity (Mus musculus [3]),Activity (Mus musculus [5]),Activity (Mus musculus [6]),inhibition (Peritoneal macrophage [7]),Activity (Mus musculus [8]),Activity (Peritoneal macrophage [9]),Activity (Peritoneal macrophage [10]),Activity (Mus musculus [12]),Activity (Peritoneal macrophage [15]),Activity (Peritoneal macrophage [16]),Activity (Peritoneal macrophage [20]) [%],Activity (Peritoneal macrophage [24]),further results
Cc1cccc2c3c(ccc12)-c1oc2c(c1C(=O)C3=O)CCN([C@H](CO)CCCO)C2,Active,100,100,Active,Active,inactive,inactive,Active,Active,Active,Active,Active,inactive,inactive,Active,inactive,inactive,,,
Cc1cccc2c3c(ccc12)-c1oc2c(c1C(=O)C3=O)CCN(CCCN1CCOCC1)C2 [listing 1 of 2 here],,,,,,,,,,,,,,,,,,41,Non-Toxic,IC50 (Peritoneal macrophage [19]): 131 nM; half-life at 20 µM [21]: 182 min; solubility [22]: 0.03 µg/mL; microsomal CLint at 20 µM [23]: 1.6 µL/min/mg; half-life at 20 µM [25]: 866 min; microsomal CLint at 20 µM [26]: 7.6 µL/min/mg; Activity (Peritoneal macrophage [27]): 97%; Kd [28]: 5.87 µM
Cc1coc2c1C(=O)C(=O)c1c-2ccc2c1CCCC2(C)C [TANSHINONE IIA],,,,,,,,,,,,,,,,,,19,Non-Toxic,Activity (Peritoneal macrophage [30]): inactive; Activity (Peritoneal macrophage [31]): 16%
